# In patent publication US20210139507A1, “FUSED PYRIDINES WHICH ACT AS INHIBITORS OF H PGDS” (GlaxoSmithKline Intellectual Property Development Limited, priority 2017, published 2021):
# Biological target: T1, hematopoietic prostaglandin D synthase (H-PGDS) (Homo sapiens, UniProt O60760)
# T1 construct: Full length human H-PGDS cDNA (Invitrogen Ultimate ORF IOH13026) was amplified by PCR; 6-His (N); TEV protease cleavage site (N); made in house; host or cells: E. coli BL21 (DE3*), vector pET22b+
# Test: H-PGDS RapidFire High Throughput Mass Spectrometry Assay
# Format: biochemical
# Settings: conversion of PGH2 to PGD2 by human H-PGDS, 10 nM enzyme
# Method: The H-PGDS RapidFire™ mass spectrometric assay monitors conversion of prostaglandin H2 (PGH2) to prostaglandin D2 (PGD2) by hematopoietic prostaglandin D synthase (H-PGDS). In the assay format described here, the substrate (PGH2) is formed in situ by the action of cyclooxygenase-2 on arachidonic acid. This first step is set up to be fast, and generates a burst of PGH2 at ˜10 μM. The PGH2 is then further converted to PGD2 by the H-PGDS enzyme. […] Plates are then read on the RapidFire™ high throughput solid phase extraction system (Agilent) which incorporates a solid phase extraction step coupled to a triple quadrupole mass spectrometer (AB SCIEX). Relative levels of PGD2 and PGF2α, which acts as a surrogate for substrate, are measured and a percent conversion calculated. Inhibitors are characterized as compounds which lower the conversion of PGH2 to PGD2.
# Full length human H-PGDS cDNA (Invitrogen Ultimate ORF IOH13026) was amplified by PCR with the addition of a 5′ 6-His tag and TEV protease cleavage site. The PCR product was digested with NdeI and XhoI and ligated into pET22b+ (Merck Novagen®). Expression was carried out in E. coli strain BL21 (DE3*) using auto-induction Overnight Express™ Instant TB medium (Merck Novagen®) supplemented with 1% glycerol. The culture was first grown at 37° C. and the temperature was reduced to 25° C. when OD600 reached 2.0. Cells were harvested by centrifugation after a further 18 hours. 10 g of E. coli cell pellet was suspended to a total volume of 80 mL in lysis buffer (20 mM Tris-Cl pH 7.5, 300 mM NaCl, 20 mM imidazole, 5 mM β-mercaptoethanol, 10% glycerol). 1 mg/mL protease inhibitors (Protease Inhibitor Cocktail Set III, Merck Calbiochem®) and 1 mg/mL lysozyme were added to the cell suspension. The suspension was then sonicated for 5 min (Ultrasonic Processor VCX 750, Cole-Parmer Instrument Co.) with a micro probe (50% amplitude, 10 sec on/off) and then centrifuged at 100,000 g for 90 minutes (at 4° C.). The supernatant was loaded onto a Ni-NTA HiTrap column (5 mL, GE Healthcare, pre-equilibrated in lysis buffer). The column was washed with 10 column volumes of lysis buffer and eluted with lysis buffer containing 500 mM imidazole. The pooled protein peak fractions were concentrated using a 10 kDa centrifugal filter at 3500 g and 4° C. (Amicon Ultra-15 centrifugal filter unit with Ultracel-10 membrane from Millipore). Further purification of the concentrated protein was carried out using gel filtration chromatography on a HiLoad 26/600 Superdex75 preparative grade column (GE Healthcare Life Sciences) using 50 mM Tris pH 7.5, 50 mM NaCl, 1 mM dithiothreitol, 1 mM MgCl2. Fractions containing the protein were pooled, concentrated as described above, and stored at −80° C.
# The full length human COX-2 gene (accession number L15326) was amplified by PCR to generate an EcoRI-Hindi 11 fragment containing an in-frame FLAG tag. This was subcloned into pFastBac 1 (Invitrogen). The COX-2 FLAG plasmid was recombined into the baculovirus genome according to the BAC-to-BAC protocol described by Invitrogen. Transfection into Spodoptera frugiperda (Sf9) insect cells was performed using Cellfectin (Invitrogen), according to the manufacturer's protocol. Super Sf9 cells were cultured in EX420 media (SAFC Biosciences) to a density of approximately 1.5×10^6 cells/mL within a wave bioreactor. Recombinant virus was added at a Multiplicity of Infection (MOI) of 5 and the culture was allowed to continue for 3 days. Cells were harvested using a continuous feed centrifuge run at 2500 g at a rate of approximately 2 L/min with cooling. The resultant cell slurry was re-centrifuged in pots (2500 g, 20 min, 4° C.) and the cell paste was stored at −80° C. 342 g of cell paste was re-suspended to a final volume of 1600 mL in a buffer of 20 mM Tris-Cl pH 7.4, 150 mM NaCl, 0.1 mM EDTA, 1.3% w/v n-octyl-β-D-glucopyranoside containing 20 Complete EDTA-free Protease Inhibitor Cocktail tablets (Roche Applied Science). […]
# T1 sequence (O60760 whole entry): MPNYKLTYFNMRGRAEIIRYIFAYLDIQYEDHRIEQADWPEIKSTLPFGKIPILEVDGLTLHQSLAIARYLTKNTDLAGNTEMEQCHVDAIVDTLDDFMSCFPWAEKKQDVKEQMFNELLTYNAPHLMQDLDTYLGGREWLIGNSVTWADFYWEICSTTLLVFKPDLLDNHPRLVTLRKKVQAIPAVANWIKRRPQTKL
row,Molecule,Potency Range (mean pIC50)
1,"2-Cyclopropyl-N-((3R,6S)-6-(2-hydroxypropan-2-yl)tetrahydro-2H-pyran-3-yl)thiazolo[4,5-b]pyridine-6-carboxamide and 2-Cyclopropyl-N-((3S,6R)-6-(2-hydroxypropan-2-yl)tetrahydro-2H-pyran-3-yl)thiazolo[4,5-b]pyridine-6-carboxamide [Example 24]",** (** = pIC50 6.0-7.0)
2,"N-(trans-4-(2-Hydroxypropan-2-yl)cyclohexyl)-2-((1S,2R)-2-methylcyclopropyl)thieno[3,2-b]pyridine-6-carboxamide and N-(trans-4-(2-hydroxypropan-2-yl)cyclohexyl)-2-((1R,2S)-2-methylcyclopropyl)thieno[3,2-b]pyridine-6-carboxamide [Example 10]",*** (*** = pIC50 7.1-8.0)

# Same assay, conditions: conversion of PGH2 to PGD2 by human H-PGDS, 10 nM enzyme; mean pIC50; read-out: Potency Range (mean pIC50) (converted)
row,Molecule,IC50 [nM]
1,CC(C)(O)[C@H]1CC[C@H](NC(=O)c2cnc3cc(Br)sc3c2)CC1 [Example 1],100 to 1000
2,CC(C)(O)[C@H]1CC[C@H](NC(=O)c2cnc3cc(C4CC4)sc3c2)CC1 [Example 2],10 to 79.4
3,"O=C(N[C@H]1CC[C@H](OCCO)CC1)c1cnc2nc(C3CC3)sc2c1 [Example 18, 2-Cyclopropyl-N-((trans)-4-(2-hydroxyethoxy)cyclohexyl)thiazolo[4,5-b]pyridine-6-carboxamide]",100 to 1000
4,"CC(C)(O)[C@H]1CC[C@H](NC(=O)c2cnc3nc(N(C4CC4)C4CC4)sc3c2)CC1 [Example 36, 2-(Dicyclopropylamino)-N-(trans-4-(2-hydroxypropan-2-yl)cyclohexyl)thiazolo[4,5-b]pyridine-6-carboxamide]",1260 to 10000
5,C[C@]1(O)C[C@@H](NC(=O)c2cnc3cc(C4CC4)sc3c2)C1 [Example 4],1260 to 10000
6,"CC(C)(O)C12CC(NC(=O)c3cnc4cc(Br)sc4c3)(C1)C2 [Example 11, 2-Bromo-N-(3-(2-hydroxypropan-2-yl)bicyclo[1.1.1]pentan-1-yl)thieno[3,2-b]pyridine-6-carboxamide]",100 to 1000
7,"CS(=O)(=O)CC(O)[C@H]1CC[C@H](NC(=O)c2cnc3nc(C4CC4)sc3c2)CC1 (mixture of isomers) [Example 28, Racemic 2-cyclopropyl-N-(trans-4-(1-hydroxy-2-(methylsulfonyl)ethyl)cyclohexyl)thiazolo[4,5-b]pyridine-6-carboxamide]",100 to 1000
8,"CC(C)(F)c1nc2ncc(C(=O)N[C@H]3CC[C@H](C(C)(C)O)CC3)cc2s1 [Example 25, 2-(2-Fluoropropan-2-yl)-N-(trans-4-(2-hydroxypropan-2-yl)cyclohexyl)thiazolo[4,5-b]pyridine-6-carboxamide]",100 to 1000
9,"CC(C)(O)C1CC2(CC(NC(=O)c3cnc4nc(C5CC5)sc4c3)C2)C1 (racemic) [Example 15, (Racemic)-2-cyclopropyl-N-(6-(2-hydroxypropan-2-yl)spiro[3.3]heptan-2-yl)thiazolo[4,5-b]pyridine-6-carboxamide]",10 to 79.4
10,"O=C(N[C@H]1CC[C@H](N2CC(F)(F)C2)CC1)c1cnc2nc(C3CC3)sc2c1 [Example 21, 2-Cyclopropyl-N-((trans)-4-(3,3-difluoroazetidin-1-yl)cyclohexyl)thiazolo[4,5-b]pyridine-6-carboxamide]",100 to 1000
11,"C[C@H]1CCN1c1nc2ncc(C(=O)N[C@H]3CC[C@H](C(C)(C)O)CC3)cc2s1 [Example 34, N-(trans-4-(2-Hydroxypropan-2-yl)cyclohexyl)-2-((S)-2-methylazetidin-1-yl)thiazolo[4,5-b]pyridine-6-carboxamide]",10 to 79.4
12,"O=C(N[C@H]1CC[C@H](C(O)C(F)(F)F)CC1)c1cnc2nc(C3CC3)sc2c1 (mixture of isomers) [Example 32, Racemic 2-Cyclopropyl-N-(trans-4-(2,2,2-trifluoro-1-hydroxyethyl)cyclohexyl)thiazolo[4,5-b]pyridine-6-carboxamide]",10 to 79.4
13,CC(C)Nc1nc2ncc(C(=O)N[C@H]3CC[C@H](C(C)(C)O)CC3)cc2s1 [Example 5],100 to 1000
14,CC(C)N(C)c1nc2ncc(C(=O)N[C@H]3CC[C@H](C(C)(C)O)CC3)cc2s1 [Example 6],10 to 79.4
15,"O=C(N[C@H]1CC[C@H](O)CC1)c1cnc2nc(C3CC3)sc2c1 [Example 16, 2-Cyclopropyl-N-((trans)-4-hydroxycyclohexyl)thiazolo[4,5-b]pyridine-6-carboxamide]",100 to 1000
16,"O=C(NC1C[C@H](O)C[C@@H](O)C1)c1cnc2nc(C3CC3)sc2c1 (mixture of isomers) [Example 41, Racemic 2-cyclopropyl-N-((3S,5S)-3,5-dihydroxycyclohexyl)thiazolo[4,5-b]pyridine-6-carboxamide]",100 to 1000
17,"CC(C)(O)C12CC(NC(=O)c3cnc4cc(C5CC5)sc4c3)(C1)C2 [Example 12, 2-Cyclopropyl-N-(3-(2-hydroxypropan-2-yl)bicyclo[1.1.1]pentan-1-yl)thieno[3,2-b]pyridine-6-carboxamide]",10 to 79.4
18,CNc1nc2ncc(C(=O)N[C@H]3CC[C@H](C(C)(C)O)CC3)cc2s1 [Example 7],100 to 1000
19,"CC(C)(C)c1nc2ncc(C(=O)N[C@H]3CC[C@H](C(C)(C)O)CC3)cc2s1 [Example 27, 2-(tert-Butyl)-N-(trans-4-(2-hydroxypropan-2-yl)cyclohexyl)thiazolo[4,5-b]pyridine-6-carboxamide]",100 to 1000
20,"CC(C)c1nc2ncc(C(=O)N[C@H]3CC[C@H](C(C)(C)O)CC3)cc2s1 [Example 30, N-(trans-4-(2-Hydroxypropan-2-yl)cyclohexyl)-2-isopropylthiazolo[4,5-b]pyridine-6-carboxamide]",100 to 1000
21,"CC(C)(O)[C@H]1CC[C@H](NC(=O)c2cnc3nc(N4CCC4)sc3c2)CC1 [Example 29, 2-(Azetidin-1-yl)-N-(trans-4-(2-hydroxypropan-2-yl)cyclohexyl)thiazolo[4,5-b]pyridine-6-carboxamide]",100 to 1000
22,"O=C(N[C@H]1CCNC1=O)c1cnc2nc(C3CC3)sc2c1 [Example 19, (S)-2-Cyclopropyl-N-(2-oxopyrrolidin-3-yl)thiazolo[4,5-b]pyridine-6-carboxamide]",100 to 1000
23,CC(C)(O)[C@H]1CC[C@H](NC(=O)c2cnc3nc(C4CC4)sc3c2)CC1 [Example 8],10 to 79.4
24,"Cn1nnnc1N1CCC(NC(=O)c2cnc3nc(C4CC4)sc3c2)CC1 [Example 31, 2-Cyclopropyl-N-(1-(1-methyl-1H-tetrazol-5-yl)piperidin-4-yl)thiazolo[4,5-b]pyridine-6-carboxamide]",100 to 1000

# System: male mdx mice
# Test: In vivo assay for functional response to muscle injury (eccentric contraction-induced muscle fatigue)
# Set-up: species or system mouse
# Settings: 7 months of age, PO 0.1, 1 and 10 mg/kg QD beginning 10 min prior to challenge, versus vehicle, FIG. 1
# Description: Under anesthesia, the right hind limb of a mouse is restrained at the knee and the foot attached to a motorized footplate/force transducer. Needle electrodes are inserted into the upper limb, either side of the sciatic nerve and a current sufficient to elicit a maximal muscle contraction is applied. Muscle tension is produced by moving the footplate to lengthen the plantarflexor muscles while the limb is under maximal stimulation. This is repeated 60 times to fatigue the muscles of the lower limb. Anesthesia, limb immobilization and limb stimulation are then repeated at regular intervals to measure maximal isometric force in the recovering limb. 7 to 9 animals are tested for each test condition.
row,Molecule,kinetics of recovery of maximal isometric torque after eccentric contraction challenge
1,CC(C)(O)[C@H]1CC[C@H](NC(=O)c2cnc3nc(C4CC4)sc3c2)CC1 [Example 8],exhibited an acceleration in the kinetics of recovery
